Measurements reported in US20250034127A1, “AUTOPHAGY INDUCING COMPOUNDS AND USES THEREOF, IN PARTICULAR FOR DISEASES OF THE CNS” (Samsara Therapeutics Inc., priority 2021, published 2025).
Where two headings read alike, the source gives them in different places.

Tests used:
[1] = test system: primary culture of dopaminergic Tyrosine hydroxylase (TH)-positive neurons; assay: Cellular model of Parkinson's disease (MPTP/MPP+ injury); type: cell-based, rat; conditions: for decrease in α-syn area per dopaminergic TH positive neuron / increase in the length of the neurite network of dopaminergic TH positive neurons / increase in the number of dopaminergic TH positive neurons: compared to MPP+ injury alone
Text: This model (run by Neuro-Sys SAS, France) is based on a primary culture of dopaminergic Tyrosine hydroxylase (TH)-positive neurons injured with the dopaminergic neurons-specific toxin (DA-toxin) 1-methyl-4-phenyl-1,2,3,6 tetrahydropyridine (MPTP, a prodrug of MPP^+) (Dauer and Przedborski, 2003). Any substances reducing DA-toxin neurotoxicity may be useful as a new therapeutic agent for the treatment or prevention of PD.
Primary culture of mesencephalic neurons: Rat dopaminergic neurons were cultured as described by Visanji et al., 2008 and Callizot et al., 2019. Briefly, pregnant female rat (Wistar) of 15 days of gestation were killed using a deep anesthesia with CO2 chamber and a cervical dislocation. The midbrains obtained from 15-day-old rat embryos (Janvier, France) were dissected under a microscope. The embryonic midbrains will be removed and placed in ice-cold medium of Leibovitz (L15) containing 2% of Penicillin-Streptomycin (PS) and 1% of bovine serum albumin (BSA). The ventral portion of the mesencephalic flexure, a region of the developing brain rich in dopaminergic neurons, was used for the cell preparations.
The midbrains were dissociated by trypsinisation for 20 min at 37° C. (solution at a final concentration of 0.05% trypsin and 0.02% EDTA). The reaction was stopped by the addition of Dulbecco's modified Eagle's medium (DMEM) containing DNAase I grade II (0.5 mg/mL) and 10% of foetal calf serum (FCS). Cells were then mechanically dissociated by 3 passages through a 10 ml pipette. Cells were then centrifuged at 180×g for 10 min at +4° C. on a layer of BSA (3.5%) in L15 medium. The supernatant was discarded, and the cell pellets re-suspended in a defined culture medium consisting of Neurobasal supplemented with B27 (2%), L-glutamine (2 mM) and 2% of PS solution and 10 ng/mL of Brain-derived neurotrophic factor (BDNF) and 1 ng/ml of Glial-Derived Neurotrophic Factor (GDNF). Viable cells were counted in a Neubauer cytometer using the trypan blue exclusion test. The cells were seeded at a density of 40,000 cells/well in 96 well-plates (pre-coated with poly-L-lysine) and maintained in a humidified incubator at 37° C. in 5% CO2/95% air atmosphere. Half of the medium was changed every 2 days with fresh medium. The wells of first and last lines and columns […] (to avoid any edge effect) and were be filled with sterile water.
• i) Pre-incubation. On day 6 of culture, the test compounds were dissolved in PBS or DMSO and incubated for 1 hour before the MPTP exposure. • ii) Injury. One hour after the application of test compound, MPTP was added to a final concentration of 4 μM, diluted in control medium still in presence of compounds/inhibitors for 48 h. Test compounds were tested on one culture in 96-well plate (n=6 culture wells per condition).
Immunostaining: TH and α-Synuclein. 48 Hours after intoxication, the cell culture supernatant was removed, and the cells were fixed by a solution of 4% paraformaldehyde in PBS, pH=7.3 for 20 min at room temperature. The cells were washed twice in PBS, and then permeabilized. Non-specific sites were blocked with a solution of PBS containing 0.1% of saponin and 1% FCS for 15 min at room temperature. The cultures were incubated with: (a) monoclonal anti-Tyrosine Hydroxylase (TH) antibody produced in mouse at dilution of 1/10000 in PBS containing 1% FCS, 0.1% saponin, for 2 hours at room temperature, and (b) polyclonal anti-alpha synuclein (α-synuclein) antibody produced in rabbit at dilution of 1/200 in PBS containing 1% FCS, 0.1% saponin, for 2 h at room temperature.
Automatic computer analysis. For each condition, 20 pictures (representing the whole well area) were automatically taken using ImageXpress® (Molecular Devices) at 10× magnification (20 pictures, for TH and α-synuclein into TH neurons) using the same acquisition parameters. From images, analyses was directly and automatically performed by MetaXpress® (Molecular Devices). […]

[2] = test system: primary spinal cord lower motor neurons (MNs) from SOD1 G93A Tg rats; assay: Cellular model of Amyotrophic Lateral Sclerosis (glutamate injury); type: cell-based, rat
Protocol: Compounds 157 (particularly) preferred), 185 and 196 were selected example compounds if this invention to evaluate in this model. This model (run by Neuro-Sys SAS, France) evaluates the protective effects of test compounds on primary spinal cord lower motor neurons (MNs) from SOD1 G93A Tg rats, after a glutamate injury. The MNs are pre-treated with the test compounds for 1 hour prior to exposure to glutamate, and readouts are measured 24 hours later. This model functions as an in vitro model of Amyotrophic Lateral Sclerosis. […] Any substances which can attenuate one or more of these effects can be considered to have protective effects in the model and may be useful as a new therapeutic agent for the treatment or prevention of ALS.
Genotyping of SOD1 Tg embryos: Pregnant female rat SODIG93A (Sprague Dawley, Taconic), of 14 days of gestation were obtained fromTaconic Bioscience. On the day of the dissection (from pregnant females at 14 days of gestation), a piece of each embryo brain (˜3 mm) was placed in a 2 mL tube free DNase with a new scalpel. The DNA was extracted with the SYBR Green Extract-N-Amp tissue PCR kit (Sigma Aldrich). Briefly, 120 μL of extraction solution was put on each piece of embryo heads. Then, they were incubated for 10 min at room temperature. At the end of this incubation period, the heads were incubated for 5 min at 95° C. Immediately after this last incubation, 100 μL of neutralizing solution was added; each DNA extract was diluted at 1/40 and stored at +4° C. until use. SOD1G93A gene was determined using genomic fragment with human SOD1 primers (5′-[…]-3′ (SEQ ID NO: 1); 5′-[…]-3′ (SEQ ID NO: 2)). The SOD1 primers were diluted at 3 μM in sterile ultrapure water. Briefly, a mix for PCR was prepared with ultrapure water (4 μL per sample), primer at 3 μM (2 μL per sample) and Master Mix (10 μL per sample). In a PCR 96 wells plate, 16 μL of PCR mix was added in each well. 4 μL of each diluted DNA was added according to a plan deposit. The RT-PCR was ran using the CFX96 Biorad RT-PCR system, using the following program: Initial denaturation (95° C., 20 sec)/45 cycles (95° C., 10 sec; 65° C., 10 sec; 72° C., 30 sec)/Melt curve (95° C., 15 sec; 64° C., 1 min; 90° C., 30 sec; 60° C. 15 sec). The amplification plots and melt curves were analyzed with the Biorad software. The results for each sample were compared to negative control (ultrapure water) and to the positive control (DNA from Tg embryos).
Rat spinal cord motor neurons (MNs) were be cultured as described by Wang et al. 2013 and Boussicault et al., 2020. Briefly, pregnant female rats of 14 days gestation (Sprague Dawley; Taconic) were killed using a deep anesthesia with CO2 chamber and a cervical dislocation. Then, fetuses were removed from the uterus and immediately placed in ice-cold L15 Leibovitz medium with a 2% penicillin (10,000 U/ml) and streptomycin (10 mg/ml) solution (PS) and 1% bovine serum albumin (BSA).
Spinal cords were treated for 20 min at 37° C. with a trypsin-EDTA solution at a final concentration of 0.05% trypsin and 0.02% EDTA. The dissociation was stopped by addition of Dulbecco's modified Eagle's medium (DMEM) with 4.5 g/liter of glucose, containing DNAse I grade II (final concentration 0.5 mg/mL) and 10% fetal calf serum (FCS). Cells were mechanically dissociated by three forced passages through the tip of a 10-ml pipette. Cells were then centrifuged at 515×g for 10 min at 4° C. The supernatant was discarded, and the pellet was resuspended in a defined culture medium consisting of Neurobasal medium with a 2% solution of B27 supplement, 2 mmol/liter of L-glutamine, 2% of PS solution, and 10 ng/ml of brain-derived neurotrophic factor (BDNF). Viable cells were counted in a Neubauer cytometer, using the trypan blue exclusion test. The cells were seeded at a density of 20,000 per well in 96-well plates precoated with poly-L-lysine and will be cultured at 37° C. in an air (95%)—CO2 (5%) incubator. […]

[3] = Bioavailability / brain and plasma pharmacokinetics after oral dosing; type: in vivo; conditions: CD1 mice; for half-life / bioavailability: mouse
Text: The compounds according to the invention have good properties for oral dosing and readily cross the blood brain barrier.

[4] = brain, oral dose of 30 mg/kg, read-out: half-life in the brain (converted)
[5] = plasma, oral, 30 mg/kg, read-out: half-life in plasma (converted)

maximum concentration in brain plasma ([3]; oral dose of 30 mg/kg)	time of maximum concentration in brain plasma ([3]; oral dose of 30 mg/kg)	half-life [3, 4]	bioavailability ([3]; plasma, 30 mg/kg, oral)	half-life [3, 5]	SMILES	effects in the in vitro model of PD based on MPP+ injury [1]	decrease in α-syn area per dopaminergic TH positive neuron ([1]; 1 μM)	increase in the length of the neurite network of dopaminergic TH positive neurons ([1]; 1 μM)	increase in the number of dopaminergic TH positive neurons ([1]; 1 μM)	effects in the in vitro model of ALS [2]	increase in neurite network length ([2]; 0.1 μM, 0.5 μM and 1 μM, compared to glutamate injury alone)	abnormal TDP43 accumulation in the cytoplasm resulting from glutamate injury ([2]; 0.1 μM, 0.5 µM, 1 μM and 10 μM)	decrease in α-syn area per dopaminergic TH positive neuron ([1]; 500 nM, 1 μM and 10 μM)	increase in the length of the neurite network of dopaminergic TH positive neurons ([1]; 500 nM, 1 μM and 10 μM)	increase in the number of dopaminergic TH positive neurons ([1]; 500 nM, 1 μM and 10 μM)	abnormal cytoplasmic TDP-43 accumulation resulting from glutamate injury ([2]; 0.1 μM, 0.5 µM and 1 μM)
2153 ng/mL	1.5 h	1.8 h	81%	1.8 h	C[C@H]1CN(C(=O)c2csc(-c3cnn(-c4ccccc4)c3)n2)CCN1 [Compound 157, (3S)-3-methyl-1-[2-(1-phenyl-1H-pyrazol-4-yl)-1,3-thiazole-4-carbonyl]piperazine]	positive effects	21%	35%	27%	positive effects	> 20%	fully abolished	–	–	–	–
3457 ng/mL	1 h	13 h	100%	18 h	CCN1CCC(NC(=O)c2csc(-c3cnn(-c4ccccc4)c3)n2)CC1 [Compound 185, N-(1-ethylpiperidin-4-yl)-2-(1-phenyl-1H-pyrazol-4-yl)-1,3-thiazole-4-carboxamide]	positive effects	–	–	–	positive effects	–	–	> 14%	> 27%	> 22%	fully abolished
